14 molecules from US5302582A, “Enkastins: new glycopeptides which act to inhibit enkephlinase, processes for their preparation, and their use as pharmaceutical products” (Hoechst Aktiengesellschaft, priority 1987, dated 1994) can be followed below.

What is called IC50 is the concentration at which inhibition is half-maximal.

The target in this test is T1, enkephalinase preparation solubilized from rat kidneys (Rattus norvegicus, UniProt P07861).
T1 construct: enkephalinase preparation solubilized from rat kidneys; from tissue; host or cells: rat kidney
T1 sequence (P07861 1-750): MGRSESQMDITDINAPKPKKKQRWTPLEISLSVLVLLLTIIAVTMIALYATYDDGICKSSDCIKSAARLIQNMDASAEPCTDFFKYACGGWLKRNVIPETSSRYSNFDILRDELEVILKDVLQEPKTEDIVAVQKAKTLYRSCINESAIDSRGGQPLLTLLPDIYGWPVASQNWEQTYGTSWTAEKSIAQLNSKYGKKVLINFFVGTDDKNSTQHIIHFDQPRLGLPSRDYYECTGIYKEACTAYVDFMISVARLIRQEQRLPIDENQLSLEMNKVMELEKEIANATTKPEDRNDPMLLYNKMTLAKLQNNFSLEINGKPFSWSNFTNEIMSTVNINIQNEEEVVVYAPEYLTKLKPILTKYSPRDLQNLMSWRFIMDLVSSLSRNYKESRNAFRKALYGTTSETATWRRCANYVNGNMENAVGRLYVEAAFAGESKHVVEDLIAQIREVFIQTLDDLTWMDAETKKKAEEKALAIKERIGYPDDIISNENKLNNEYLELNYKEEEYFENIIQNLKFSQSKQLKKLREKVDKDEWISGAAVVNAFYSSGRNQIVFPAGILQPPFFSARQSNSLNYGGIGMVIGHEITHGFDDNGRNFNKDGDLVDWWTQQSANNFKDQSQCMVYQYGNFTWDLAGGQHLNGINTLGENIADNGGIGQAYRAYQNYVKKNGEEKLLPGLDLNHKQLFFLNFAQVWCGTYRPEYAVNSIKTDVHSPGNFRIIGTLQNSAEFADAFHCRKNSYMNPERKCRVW
Kind of test: Enkephalinase assay (enkephalinase inhibition). It is filed as biochemical. The note with it: for IC50: inhibitor preincubated with the enzyme at room temperature for 60 minutes before addition of the substrate, read-out: IC50 (50% inhibition of enkephalinase); for enkephalinase-inhibitory activity of HPLC peaks: freeze-dried RP-18 HPLC fractions of crude enkastin complex from Streptomyces albus ATCC 21838. The protocol:
The enzyme used was an enkephalinase preparation solubilized from rat kidneys by methods known per se [Mumford, R. A. et al. 1982, Biochem. Biophys. Res. Comm. 109, 1303-1309]. The 50% inhibition of enkephalinase by the compounds according to the invention, i.e. the IC50 value, was determined in a known manner using a concentration series, and the inhibitors, to which the invention relates, having been preincubated with the enzyme at room temperature for 60 minutes before the enzymatic reaction was started by addition of the substrate. Suitable checks for the non-inhibited reaction were carried out in the absence of an inhibitor.

As to `CC(C)[C@@H](NCC(=O)[C@@H](O)[C@H](O)[C@H](O)CO)C(=O)N[C@@H](CC(=O)O)C(=O)O` [compound 1, N-(1-deoxyfructos-1-yl)-D-Val-Asp], the IC50 is 1.3 nM.
Still for that read-out and setting: the value for `CC[C@@H](C)[C@@H](NCC(=O)[C@@H](O)[C@H](O)[C@H](O)CO)C(=O)N[C@@H](CC(=O)O)C(=O)O` [compound 2, N-(1-deoxyfructos-1-yl)-D-Ile-Asp] was 1.8 nM.
`CC(C)[C@H](NCC(=O)[C@@H](O)[C@H](O)[C@H](O)CO)C(=O)N[C@@H](CC(=O)O)C(=O)O` [compound 4, N-(1-deoxyfructos-1-yl)-Val-Asp]: the “enkephalinase-inhibitory activity of HPLC peaks” value is on record as “enkephalinase-inhibitory activity” and the IC50 came to 6.3 nM.
Turning to `O=C(O)CC[C@H](NC(=O)[C@H](Cc1ccccc1)NCC(=O)[C@@H](O)[C@H](O)[C@H](O)CO)C(=O)O` [compound 5, N-(1-deoxyfructos-1-yl)-Phe-Glu], the IC50 turned out to be 56 nM.
Turning to `CC(C)[C@H](NCC(=O)[C@@H](O)[C@H](O)[C@H](O)CO)C(=O)N[C@@H](CCC(=O)O)C(=O)O` [compound 6, N-(1-deoxyfructos-1-yl)-Val-Glu], the “enkephalinase-inhibitory activity of HPLC peaks” value was “enkephalinase-inhibitory activity” and the IC50 was determined as 34 nM.
Regarding `CC[C@H](C)[C@H](NCC(=O)[C@@H](O)[C@H](O)[C@H](O)CO)C(=O)N[C@@H](CC(=O)O)C(=O)O` [compound 7, N-(1-deoxyfructos-1-yl)-Ile-Asp], the IC50 was determined as 34 nM.
As to `CC[C@H](C)[C@H](NCC(=O)[C@@H](O)[C@H](O)[C@H](O)CO)C(=O)N[C@@H](CCC(=O)O)C(=O)O` [compound 8, N-(1-deoxyfructos-1-yl)-Ile-Glu], the “enkephalinase-inhibitory activity of HPLC peaks” value is recorded as “enkephalinase-inhibitory activity” and the IC50 worked out at 56 nM.
For `CC[C@H](C)[C@H](NCC(=O)[C@@H](O)[C@H](O)[C@H](O)CO)C(=O)N[C@@H](CC(=O)OC(C)(C)C)C(=O)O` [compound 9, N-(1-deoxyfructos-1-yl)-Ile-Asp(OtBu)], the half-inhibitory concentration (IC50) is 70 nM.
On the same count and under the same terms, under `CC[C@H](C)[C@H](NCC(=O)[C@@H](O)[C@H](O)[C@H](O)CO)C(=O)N[C@@H](CO)C(=O)O` [compound 11, N-(1-deoxyfructos-1-yl)-Ile-Ser] stands 210 nM; under `CC(C)[C@@H](NCC(=O)[C@@H](O)[C@H](O)[C@H](O)CO)C(=O)O` [compound 12, N-(1-deoxyfructos-1-yl)-D-Val], 230 nM; under `CC(C)[C@H](NCC(=O)[C@@H](O)[C@@H](O)[C@H](O)CO)C(=O)N[C@@H](CC(=O)O)C(=O)O` [compound 13, N-(1-deoxytagatos-1-yl)-Val-Asp], 320 nM.
The same measure, in the same setting: under `CC[C@@H](C)[C@@H](NCC(=O)[C@@H](O)[C@H](O)[C@H](O)CO)C(=O)O` [compound 14, N-(1-deoxyfructos-1-yl)-D-Ile] stands 340 nM; under “N-(1-deoxyfructos-1-yl)-Hhp-Asp [compound 10]”, 75 nM.
Turning to “N-(1-deoxyfructos-1-yl)-Ile-Asp [compound 3]”, the “enkephalinase-inhibitory activity of HPLC peaks” value was “enkephalinase-inhibitory activity” and the IC50 was 1.8 nM.
